Data set [1] deals with Staphylococcus epidermidis. The experiment in a line: Antibacterial activity against Staphylococcus epidermidis ATCC 12228 assessed as inhibition of bacterial growth incubated for 18 to 24 hrs. The class given is functional. As to conditions: time 18-24 hrs.
Data set [2] in a line: Toxicity in Kunming mouse infected with Staphylococcus aureus ATCC 6538p assessed as animal survival rate 15 mg/kg, ip pre-infected with bacteria for 1 hr followed by compound administration and measured after 7 days. Particulars: in vivo, 168 h, time 7 day. The class given is organism-based.
The nature of data set [3]: Binding affinity to AgrC-I extra-loop-III (unknown origin) assessed as change in enthalpy incubated for 10 mins by isothermal titration calorimetry analysis. For orientation: Isothermal titration calorimetry measures the heat released or taken up as one component is titrated into another.
Data set [4] has as its system Staphylococcus aureus. In words: Antivirulence activity against Staphylococcus aureus ATCC 6538p assessed as downregulation of RNAIII expression level at 2.5 uM measured for 28 passages by qRT-PCR analysis. The class given is functional, organism-based. (In qPCR the cycle at which signal appears reflects the starting amount.)
Data set [5] has as its system Cell membrane. In words: Induction of cell membrane damage in Staphylococcus aureus ATCC 6538p assessed as increase in fluorescent intensity incubated for 30 mins by PI staining based flow cytometry assay. On the technique in general: Flow cytometry measures light scatter and fluorescence of single cells or particles in a stream.
For data set [6], the system named is Staphylococcus aureus. The experiment in a line: Antivirulence activity against Staphylococcus aureus assessed as downregulation of hla expression level at 1 to 100 uM incubated for 24 hrs by qRT-PCR analysis. In kind it is functional, organism-based. As to conditions: dose 1-100 µM.
Data set [7] deals with Staphylococcus aureus. In words: Antibacterial activity against Staphylococcus aureus assessed as reduction in bacterial growth at 6.25 uM measured at 20 mins by time kill assay. The class given is functional, organism-based.
In data set [8] the test system is Staphylococcus aureus. The experiment in a line: Inhibition of biofilm formation in Staphylococcus aureus incubated for 24 hrs by crystal violet staining based microscopic analysis. The class given is functional, organism-based.
Data set [9] has as its system Escherichia coli. The experiment in a line: Antibacterial activity against Escherichia coli ATCC 25922 assessed as inhibition of bacterial growth incubated for 18 to 24 hrs. In kind it is functional. Particulars: time 18-24 hrs.
Data set [10] deals with Staphylococcus aureus. In words: Antivirulence activity against Staphylococcus aureus assessed as downregulation of psm-alpha expression level at 1 to 100 uM incubated for 24 hrs by qRT-PCR analysis. The class given is functional, organism-based. As to conditions: dose 1-100 µM.
In data set [11] the test system is Staphylococcus aureus. The experiment in a line: Bactericidal activity against Staphylococcus aureus ATCC 43300 assessed as inhibition of bacterial growth incubated for 18 to 24 hrs. As to conditions: time 18-24 hrs. The class given is functional.
Data set [12] has as its system Staphylococcus epidermidis. The experiment in a line: Bactericidal activity against Staphylococcus epidermidis ATCC 12228 assessed as inhibition of bacterial growth incubated for 18 to 24 hrs. In kind it is functional. As to conditions: time 18-24 hrs.

Structures are written as SMILES. Values after ≈ are worked out from the molar mass of the structure shown. Active and inactive are the calls of the source. The rule behind the calls is not given here. Numbered stars: 1 amine (or outer) side, 2 acyl side, 3 side chain; on linkers, the order of the positions; unused ones are H or OH. Bridge positions count the residues as written; N and C are the ends. Square brackets hold non-standard residues; d marks the D form. Peptide text beside a SMILES is read from it. I, II: the chains in the order shown. X1 = O=C1CC([*:2])C(=O)N1CCCCCC(=O)[*:1]; Dab = NCC[C@H](N)C(=O)O

Broadly, the MIC is the least concentration at which growth counts as inhibited. One may read the MBC as the lowest tested concentration that kills the bacteria rather than only halting them. For the compound `CC[C@H](C)[C@H](NC(=O)CNC(=O)CNC(=O)[C@@H](N)CSC1CC(=O)N(CCCCCC(=O)NCC(=O)N[C@H](C(=O)N[C@@H](CCCCN)C(=O)N[C@@H](CC(N)=O)C(=O)N[C@@H](CC(C)C)C(=O)N[C@@H](Cc2c[nH]c3ccccc23)C(=O)N[C@@H](CCCCN)C(=O)N[C@@H](CCCCN)C(=O)N[C@@H](CCSC)C(=O)N[C@H](C(=O)N[C@@H](CCCCN)C(=O)N[C@@H](CC(C)C)C(=O)N[C@@H](Cc2c[nH]c3ccccc23)C(=O)N[C@@H](Cc2ccc(O)cc2)C(=O)O)[C@@H](C)CC)[C@@H](C)CC)C1=O)C(=O)N[C@@H](CC(N)=O)C(=O)N[C@H]1CCNC(=O)[C@H](CC(C)C)NC(=O)[C@H](CC(C)C)NC(=O)[C@H](Cc2ccccc2)NC(=O)[C@H](C)NC1=O` (some centres not stated) (I: GIKNLWKKMIKLWY-OH / II: H-CGGIN[Dab]AFLL; linker I:N-II:1 via X1; lactam II:6-II:C), the minimum inhibitory concentration (MIC) in data set [1] came out at 1.56 µM (≈ 4.69 µg/mL); in [9], 3.13 µM (≈ 9.4 µg/mL). In addition, the Activity in [2] is 20%. Also, the deltaH entry in [3] is “inactive”. The outcome in [4], in data set [5], in [6], in data set [7] and in [10] was Active. The inhibition result in data set [8] was “Active”. In addition, the figures for the minimum bactericidal concentration (MBC) in data set [11] and in data set [12] were 6.25 µM (≈ 18.8 µg/mL) and 3.13 µM (≈ 9.4 µg/mL), respectively.

Values taken from ChEMBL document CHEMBL5376002, “A Hybrid Antimicrobial Peptide Targeting Staphylococcus aureus with a Dual Function of Inhibiting Quorum Sensing Signaling and an Antibacterial Effect” (J Med Chem, 2023).
